Data on 23 compounds can be found in patent US20240197694A1, “MODIFIED PROTEINS AND PROTEIN BINDERS” (Cullgen (Shanghai), Inc., priority 2021, published 2024).

Where only a bound is given, the exact number is not on record here.

This assay deals with T1, DCAF1 (1058-1396) (Homo sapiens, UniProt Q9Y4B6).
T1 construct: a fragment of a DCAF1 protein that includes amino acid residues A1058 to E1396; His6 (N, cleaved yes); made in house; host or cells: Sf9 insect cells (Bac-to-Bac baculovirus, pFastBacHT vector)
T1 sequence (Q9Y4B6 1058-1396): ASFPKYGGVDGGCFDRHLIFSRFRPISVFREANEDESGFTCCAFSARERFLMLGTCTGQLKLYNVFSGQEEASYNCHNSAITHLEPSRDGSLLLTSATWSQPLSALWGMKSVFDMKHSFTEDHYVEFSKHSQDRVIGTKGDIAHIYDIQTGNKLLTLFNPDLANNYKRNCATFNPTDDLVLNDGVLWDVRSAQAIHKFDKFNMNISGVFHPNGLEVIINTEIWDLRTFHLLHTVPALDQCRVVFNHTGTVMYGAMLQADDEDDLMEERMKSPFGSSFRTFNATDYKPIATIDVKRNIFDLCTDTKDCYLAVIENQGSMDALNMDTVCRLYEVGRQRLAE
As to the kind of experiment: Surface plasmon resonance (SPR) binding assay, compound binding to DCAF1. Particulars: immobilized DCAF1 (1058-1396), steady state affinity model, 25° C. In outline:
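Amine-coupled DCAF1 (1058-1396), Sf9-expressed, tag removed, at 9,000-12,000 RU; HBS-EP pH 7.4 with 2% DMSO, 25° C. Compounds at 100-3.125 μM (6-point, two-fold) injected multi-cycle, 60 s association/dissociation, 30 μL/min; double-referenced, solvent-corrected, Kd from steady-state affinity fit.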
A general note: Surface plasmon resonance follows binding to a sensor surface in real time, without labels.
As for `COC(=O)c1scc(C)c1S(=O)(=O)N1c2ccc(C)cc2C2CN(C)CCC21` (centres unmarked) [CPD-076, methyl 3-((2,8-dimethyl-1,2,3,4,4a,9b-hexahydro-5H-pyrido[4,3-b]indol-5-yl)sulfonyl)-4-methylthiophene-2-carboxylate], the dissociation constant Kd was in the range of 40 to 70 µM.
The value for `Cc1ccc2c(c1)C1CN(C)CCC1N2C(=O)C[C@@H](n1cccn1)C(F)(F)F` (stereo partly drawn) [CPD-080, (R)-1-(2,8-dimethyl-1,2,3,4,4a,9b-hexahydro-5H-pyrido [4,3-b]indol-5-yl)-4,4,4-trifluoro-3-(1H-pyrazol-1-yl)butan-1-one] was above 100 µM; that for `Cc1ccc2c(c1)[C@@H]1CN(C)CC[C@H]1N2C` (racemic) [CPD-034, trans-2,5,8-trimethyl-2,3,4,4a,5,9b-hexahydro-1H-pyrido[4,3-b]indole] was above 100 µM; that for `O=c1cc(CNCc2cnc[nH]2)cc[nH]1` [CPD-026, 4-((((1H-imidazol-5-yl)methyl)amino)methyl)pyridin-2(1H)-one] was above 100 µM.
The value for `CN1Cc2cc(NCCOCCOCCOCCN)ccc2CC1CNc1ncccc1F` (centres unmarked) [CPD-017, N-(2-(2-(2-(2-aminoethoxy)ethoxy)ethoxy)ethyl)-3-(((3-fluoropyridin-2-yl)amino)methyl)-2-methyl-1,2,3,4-tetrahydroisoquinolin-7-amine] was 40 to 70 µM.
The value for `COc1cncc(CNCc2cnc[nH]2)c1` [CPD-027, N-((1H-imidazol-5-yl)methyl)-1-(5-methoxypyridin-3-yl) methanamine] was above 100 µM; that for `Cc1ccc2c(c1)C1CN(C)CCC1N2C(=O)c1cc(C#N)oc1C` (centres unmarked) [CPD-072, 4-(2,8-dimethyl-2,3,4,4a,5,9b-hexahydro-1H-pyrido[4,3-b]indole-5-carbonyl)-5-methylfuran-2-carbonitrile] was above 100 µM; that for `Cc1ccc2c(c1)C1CN(C)CCC1N2C(=O)c1cc2c(s1)CCCC2` (centres unmarked) [CPD-073, (2,8-dimethyl-1,2,3,4,4a,9b-hexahydro-5H-pyrido[4,3-b]indol-5-yl)(4,5,6,7-tetrahydrobenzo[b]thiophen-2-yl)methanone] was above 100 µM.
The compound `Cc1ccc2c(c1)C1CN(C)CCC1N2C(=O)c1cc(F)ccc1Br` (centres unmarked) [CPD-065, (2-bromo-5-fluorophenyl) (2,8-dimethyl-1,2,3,4,4a,9b-hexahydro-5H-pyrido[4,3-b]indol-5-yl)methanone] had a Kd of at most 40 µM.
The value for `Cc1ccc2c(c1)c1c(n2C)CC[N+](C)(C)C1` [CPD-020, 2,2,5,8-tetramethyl-2,3,4,5-tetrahydro-1H-2λ^4-pyrido[4,3-b]indol-3-ylium] was above 100 µM.
The value for `Cc1ccc2c(c1)C1CN(C)CCC1N2C(=O)c1cc(-n2cccc2)ccn1` (centres unmarked) [CPD-068, (4-(1H-pyrrol-1-yl)pyridin-2-yl)(2,8-dimethyl-1,2,3,4,4a,9b-hexahydro-5H-pyrido[4,3-b]indol-5-yl)methanone] was above 100 µM.
The value for `Cc1ccc2c(c1)C1CN(C)CCC1N2S(=O)(=O)c1ccc(C(=O)C(C)C)cc1` (centres unmarked) [CPD-077, 1-(4-((2,8-dimethyl-1,2,3,4,4a,9b-hexahydro-5H-pyrido[4,3-b]indol-5-yl)sulfonyl)phenyl)-2-methylpropan-1-one] was above 100 µM; that for `Cc1ccc2c(c1)C1CN(C)CCC1N2C(=O)/C=C/c1ccc(F)cc1` (centres unmarked) [CPD-084, (E)-1-(2,8-dimethyl-1,2,3,4,4a,9b-hexahydro-5H-pyrido [4,3-b]indol-5-yl)-3-(4-fluorophenyl)prop-2-en-1-one] was 40 to 70 µM; that for `Cn1cccc1CNCc1ccncc1` [CPD-001, 1-(1-methyl-1H-pyrrol-2-yl)-N-(pyridin-4-ylmethyl)methanamine] was 40 to 70 µM.
For `CC(C)(C)c1ccc2[nH]c3c(c2c1)CN(CCc1cnn[nH]1)CC3` [CPD-011, 2-(2-(1H-1,2,3-triazol-5-yl)ethyl)-8-(tert-butyl)-2,3,4,5-tetrahydro-1H-pyrido[4,3-b]indole], the Kd was in the range of 40 to 70 µM.
Consider `COc1cccc2c3c([nH]c12)CCN(C)C3` [CPD-047, 6-methoxy-2-methyl-2,3,4,5-tetrahydro-1H-pyrido[4,3-b]indole], for which the Kd is above 100 µM.
The value for `NCCOCCOCCOCCn1cccc1CNCc1ccncc1` [CPD-006, 2-(2-(2-(2-(2-(((pyridin-4-ylmethyl)amino)methyl)-1H-pyrrol-1-yl)ethoxy)ethoxy)ethoxy)ethan-1-amine] was 40 to 70 µM; that for `Cc1ccc2[nH]c3c(c2c1)C[N+](C)(C)CC3` [CPD-021, 2,2,8-trimethyl-2,3,4,5-tetrahydro-1H-2λ^4-pyrido[4,3-b]indol-3-ylium] was above 100 µM; that for `COc1ccc2cc(CNCc3cncn3CC(C)C)c(=O)[nH]c2c1` [CPD-104, 3-((((1-isobutyl-1H-imidazol-5-yl)methyl)amino)methyl)-7-methoxyquinolin-2(1H)-one] was 70 to 100 µM.
The value for `CNC(=O)NC(=O)CCN1CCc2[nH]c3ccc(Cl)cc3c2C1` [CPD-050, 3-(8-chloro-1,3,4,5-tetrahydro-2H-pyrido[4,3-b]indol-2-yl)-N-(methylcarbamoyl)propanamide] was 70 to 100 µM; that for `c1ncc(CNCc2ccc3cc[nH]c3c2)[nH]1` [CPD-029, N-((1H-imidazol-5-yl)methyl)-1-(1H-indol-6-yl)methanamine] was above 100 µM.
In the case of `CN1CCc2c(c3ccccc3n2-c2ccccc2)C1` [CPD-057, 2-methyl-5-phenyl-2,3,4,5-tetrahydro-1H-pyrido[4,3-b]indole], the Kd is above 100 µM.
The value for `COc1cc(CNCc2cnc[nH]2)ccn1` [CPD-025, N-((1H-imidazol-5-yl)methyl)-1-(2-methoxypyridin-4-yl) methanamine] was above 100 µM.

By Kd is commonly meant the concentration at which binding is half-saturated.
